Data taken from paper PMC9846164, “Oral administration of VDAC1-derived small molecule peptides increases circulating testosterone levels in male rats” (Frontiers in Endocrinology, 2023).
“Also recorded” adds a separate entry of the source. Square brackets hold non-standard residues; d marks the D form. Peptide text beside a SMILES is read from it.

What was measured:
[1] = Peptide stability in plasma; type: in vitro ADME; details: 4 µM peptide (KVSQ 12.5 µM) in 100 µl Brown-Norway rat plasma, 37°C, 1-120 minutes, methanol crash, LC-MS/MS SRM, % of 1 min level, N=3 mean ± SEM, Figure 4J
Experimental: For peptide stability experiments, plasma from Brown-Norway rats aged 90-140 days was collected and stored at -20°C until further use. The plasma was thawed, spun at 12,000 RPM for 10 min, and kept at 4°C. 4 μM of the various peptides were incubated with 100 μL of plasma that was warmed at 37°C for 10 min before use. After 1, 15, 30, 60, 90 or 120 minutes, the plasma/peptide samples were crashed with 300 µL of 100% methanol, spun at 14,000 RPM for 10 min, and the supernatant collected. The methanol in the supernatant was evaporated and the samples were re-extracted. The final pellet was solubilized in 5 μL methanol followed by the addition of 100 μL of sterile double distilled water. The extracted samples were transferred to plastic tubes and placed in the autoloader of the mass spectrometer.
(§1) The analytical instrumentation consisted of a Thermo-Scientific ISQ Quantiva Triple Quadrupole Mass Spectrometer (QQQ), incorporating a heated electrospray ionization (HESI) source, and a Thermo-Scientific UltiMate™ 3000 UHPLC system (including, UltiMate™ 3000 RS autosampler). Analytical conditions were developed using a reference standard in a solution containing 5 µM of the corresponding peptide. The chromatography was resolved by isocratic elution of a binary solvent system incorporating (A) 0.1% Formic Acid (aq) and (B) ACN + 0.1% FA and using an Agilent Eclipse Plus™ C18 analytical column (100mm X 2.1mm ID, 1.8 µm particle). A 5µL injection volume and solvent flow rate of 150 µL/min were used. The MS/MS acquisition time was 7 min and total run time was 8.3 min/injection. The triple Quadrupole MS/MS instrumentation conditions were as follows: the HESI source voltage was 3200 V, the sheath gas […], auxilirary gas 20 L/min, sweep gas 2.0 L/min, the ion transfer temperature was 350°C, the vaporizer temperature was 350°C, the CID gas was 1.5 (mTorr) and the dwell time was 100 msec. The Q1 Resolution (FWHM) was 0.4 (unitless) and the Q3 resolution (FWHM) was 0.7 (unitless). The instrument ran in a selected reaction monitoring (SRM), positive ion detection mode at various collision energies (CE) for the following mass transitions: […]

[2] = Oral pharmacokinetics after single oral dose; type: in vivo, rat; details: Brown-Norway, rat; single oral dose 10 mg peptide in 1 ml, fasted 4 hrs, jugular plasma 5-120 minutes, LC-MS/MS, N=4 in two rounds, Figure 4K; read-out: time to peak concentration in blood (converted)
Experimental: (§2) For all oral experiments, administration via gavage began between 8:30-8:50 am with a 3-minute delay between each rat. Animals used for pharmacokinetic studies were fasted for 4 hrs before starting gavage at 1 pm with a 3-minute delay between each rat.
(§3) For oral pharmacokinetic experiments, jugular blood samples were collected following a single oral dose of 10 mg peptide in 1 ml of vehicle after 5, 15, 30, 45, 60, 90, and 120 minutes. Protein inhibitor cocktail (ROCHE, cOmplete protease inhibitors, Cat# 11697498001), which was added into the EDTA collection tubes, was used for KVSQ and RVTQ peptides. Plasma was immediately extracted, and 100 μL of plasma were crashed with 300 µL of 100% methanol, spun at 14,000 RPM for 10 min, and the supernatant harvested. Re-extraction of the precipitant and solubilization of the pellet were as described above.
as §1, with “(unitless).” for “(unitless). The instrument ran in a selected reaction monitoring (SRM), positive ion detection mode at various collision energies (CE) for the following mass transitions:”

[3] = RdVTQ stability on storage (mass-spec area under the curve); type: physicochemical; details: fresh vs in distilled water at 37°C for 7 - 28 days, freeze/thaw, stored at -20°C; Figure 5F
Experimental: as §1

[4] = tested on: Brown-Norway rats; assay: Oral pharmacokinetics after single oral dose; type: in vivo, rat; details: single oral dose 10 mg in 1 ml; protease inhibitor cocktail in tubes for KVSQ and RVTQ; LC-MS/MS
Experimental: as §2, §3
as §1, with “(unitless).” for “(unitless). The instrument ran in a selected reaction monitoring (SRM), positive ion detection mode at various collision energies (CE) for the following mass transitions:”

[5] = tested on: Brown-Norway rats; assay: Oral gavage of peptides; plasma testosterone and corticosterone; type: in vivo, rat; details: ~10 µg/kg oral, 2 hrs after gavage
Experimental: All peptides were dissolved in molecular grade, sterile double distilled water to obtain a 1 mM stock solution and stored at -20°C. Peptides used for oral screenings were prepared from 1 mM peptide stock and diluted in sterile tap water in a total volume of 1 ml.
All samples were measured in duplicate according to each of the manufacturer’s instructions. Serum, plasma, or intratesticular fluid samples were diluted until controls fitted the middle of the standard curve used.

Structure (SMILES)	half-life in plasma (rank order) [1]	also measured
CC[C@H](C)[C@H](NC(=O)[C@@H](N)CCCNC(=N)N)C(=O)N[C@H](C(=O)N[C@@H](CCC(N)=O)C(=O)O)[C@@H](C)O [RITQ] (H-RITQ-OH)	Ac-RITQdS-CONH2 > RdVTQ > Ac-RdITQ-CONH2 > RITQ > RVTQ > KVSQ	
CC[C@H](C)[C@H](NC(=O)[C@H](CCCNC(=N)N)NC(C)=O)C(=O)N[C@H](C(=O)N[C@@H](CCC(N)=O)C(=O)N[C@H](CO)C(N)=O)[C@@H](C)O [Ac-RITQdS-CONH2] (Ac-RITQ[dS]-NH2)	Ac-RITQdS-CONH2 > RdVTQ > Ac-RdITQ-CONH2 > RITQ > RVTQ > KVSQ	Tmax [2]: ~15 min
CC(C)[C@@H](NC(=O)[C@@H](N)CCCNC(=N)N)C(=O)N[C@H](C(=O)N[C@@H](CCC(N)=O)C(=O)O)[C@@H](C)O [RdVTQ] (H-R[dV]TQ-OH)	Ac-RITQdS-CONH2 > RdVTQ > Ac-RdITQ-CONH2 > RITQ > RVTQ > KVSQ	stability (area under the curve by mass-spec) [3]: highly stable
CC[C@@H](C)[C@@H](NC(=O)[C@H](CCCNC(=N)N)NC(C)=O)C(=O)N[C@H](C(=O)N[C@@H](CCC(N)=O)C(N)=O)[C@@H](C)O [Ac-RdITQ-CONH2] (Ac-R[dI]TQ-NH2)	Ac-RITQdS-CONH2 > RdVTQ > Ac-RdITQ-CONH2 > RITQ > RVTQ > KVSQ	
CC(C)[C@H](NC(=O)[C@@H](N)CCCNC(=N)N)C(=O)N[C@H](C(=O)N[C@@H](CCC(N)=O)C(=O)O)[C@@H](C)O [RVTQ] (H-RVTQ-OH)	Ac-RITQdS-CONH2 > RdVTQ > Ac-RdITQ-CONH2 > RITQ > RVTQ > KVSQ	detection in rat plasma after oral dose [4]: not detected
CC[C@@H](C)[C@@H](NC(=O)[C@H](CCCCN)NC(C)=O)C(=O)N[C@H](C(=O)N[C@@H](CCC(N)=O)C(N)=O)[C@@H](C)O [Ac-KdITQ-CONH2] (Ac-K[dI]TQ-NH2)		average testosterone levels at ~10 µg/kg [5]: increased, although not significantly
CC(C)[C@H](NC(=O)[C@@H](N)CCCCN)C(=O)N[C@@H](CO)C(=O)N[C@@H](CCC(N)=O)C(=O)O [KVSQ] (H-KVSQ-OH)	rapid degradation; also recorded: Ac-RITQdS-CONH2 > RdVTQ > Ac-RdITQ-CONH2 > RITQ > RVTQ > KVSQ	detection in rat plasma after oral dose [4]: not detected
